# Results as given in patent publication US9518000B2, “Bicyclo [2.2.1] acid GPR120 modulators” (BRISTOL-MYERS SQUIBB COMPANY, priority 2013, dated 2016).
# How the values were obtained:
# human GPR120 = human GPR120 (Homo sapiens (Human), UniProt Q5NUL3); experiment: GPR120 pERK AlphaScreen SureFire Assay (human GPR120 pERK assay); format: cell-based; conditions: CHOA12 or CHO-K1 cells stably transfected with the short form of human GPR120 receptor; phosphorylated ERK; read-out: EC50 values measured in the human GPR120 pERK assay
# Sequence of human GPR120 (Q5NUL3 whole entry): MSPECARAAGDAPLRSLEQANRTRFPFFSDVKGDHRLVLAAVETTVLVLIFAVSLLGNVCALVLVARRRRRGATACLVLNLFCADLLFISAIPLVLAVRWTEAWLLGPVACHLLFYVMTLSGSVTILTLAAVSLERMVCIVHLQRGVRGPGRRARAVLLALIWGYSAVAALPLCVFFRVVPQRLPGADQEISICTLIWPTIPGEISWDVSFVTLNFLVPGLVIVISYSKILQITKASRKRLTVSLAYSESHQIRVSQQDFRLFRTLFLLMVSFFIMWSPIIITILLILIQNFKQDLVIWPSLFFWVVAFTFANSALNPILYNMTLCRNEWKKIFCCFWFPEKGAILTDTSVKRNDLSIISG
# Method in brief: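 CHO cells (CHOA12 or CHO-K1) stably expressing short-form human GPR120 were serum-starved for 2 h, then exposed to compound for 7 min at 37 °C over an 11-point range of 33.33 μM–0.56 nM final. ERK phosphorylation was read by AlphaScreen SureFire and normalised to DMSO and to 50 μM linolenic acid. EC50 was derived from a 4-parameter logistic fit.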
# C57BL/6 mice = experiment: Acute Oral Glucose Tolerance Test; format: in vivo; conditions: oral glucose tolerance test in mice at dose of 30 mg/kg; AUC t=0-120 min compared to vehicle
# Description: In Vivo GPR120 Assays 1) Acute Oral Glucose Tolerance Test
# C57BL/6 mice were housed individually and fed a standard rodent chow diet. At approximately 11 weeks age, after a 5 h fast, these mice were orally treated with vehicle or test compounds 60 min before a glucose challenge (2 g/kg). Blood glucose levels were determined from tail bleeds taken at −60, 0, 15, 30, 60 and 120 min after the glucose challenge. The blood glucose excursion profile from t=0-120 min was used to calculate an area under the curve (AUC) for compound treatment. This AUC for compound treatment is compared to vehicle treatment.
EC50 (human GPR120) [nM],Compound,reduced glucose AUC levels (C57BL/6 mice) [%]
600,"O=C(O)[C@H]1C[C@@H]1CC12CCC(OCc3cc(F)cc(Oc4ccccc4)c3)(CC1)C2 (single isomer, unassigned) [Example 92]",25
1620,"O=C(O)COCC12CCC(OCc3cc(F)cc(Oc4ccccc4)c3)(CC1)C2 [Example 73, 2-((4-(3-fluoro-5-phenoxybenzyloxy)bicyclo [2.2.1]heptan-1-yl)methoxy) acetic acid]",21
